The experiment concerns SARS-CoV-2 variants Alpha, Beta, Delta, Omicron BA.1, and XBB.1.5. It counts as cell-based.

In the case of `O=S1(=O)O[C@@H]2[C@H](O)[C@@H](O)[C@H](O)[C@@H](CO)[C@@H]2O1` [Compound 11, 1,6-epi-cyclophellitol cyclosulfate], the “reduction in infectious virus titer, SARS-CoV-2 variants” value is ~100 fold.

For the origin of these results see PMC11363342 (ACS Central Science, 2024).
